Test results reported in US7842808B2, “Anti-migraine spirocycles” (Bristol-Myers Squibb Company, priority 2002, dated 2010).
Like-named read-outs stand apart in the source and are kept apart here.

Experiments:
[1] = target: T1, CGRP receptor (SK-N-MC cell membranes) (Homo sapiens, UniProt O60894+Q16602); experiment: CGRP Binding Assay ([125I]-CGRP radioligand binding, SK-N-MC homogenate)
T1 construct: endogenous in cells; host or cells: SK-N-MC cells (membrane homogenate)

[2] = target: T2, human CGRP receptor (SK-N-MC cells) (Homo sapiens, UniProt O60894+Q16602); experiment: Cyclic AMP Assay, functional antagonism of CGRP-induced cyclic AMP formation; type: cell-based
T2 construct: SK-N-MC cells that endogenously express the human CGRP receptor; endogenous in cells; host or cells: SK-N-MC cells
T2 sequence (Q16602 23-461): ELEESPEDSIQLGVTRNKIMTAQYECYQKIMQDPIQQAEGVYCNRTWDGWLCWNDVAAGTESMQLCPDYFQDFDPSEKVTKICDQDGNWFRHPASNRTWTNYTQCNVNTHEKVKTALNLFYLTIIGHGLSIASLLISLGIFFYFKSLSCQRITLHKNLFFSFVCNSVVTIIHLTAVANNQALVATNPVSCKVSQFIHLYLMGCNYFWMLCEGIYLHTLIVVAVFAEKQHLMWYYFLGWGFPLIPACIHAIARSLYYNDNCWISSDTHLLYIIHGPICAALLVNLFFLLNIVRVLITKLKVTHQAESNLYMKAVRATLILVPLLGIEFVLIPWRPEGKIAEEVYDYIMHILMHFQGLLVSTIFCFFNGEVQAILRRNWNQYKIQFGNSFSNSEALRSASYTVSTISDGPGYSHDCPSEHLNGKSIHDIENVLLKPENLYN
T2 sequence (O60894 27-148): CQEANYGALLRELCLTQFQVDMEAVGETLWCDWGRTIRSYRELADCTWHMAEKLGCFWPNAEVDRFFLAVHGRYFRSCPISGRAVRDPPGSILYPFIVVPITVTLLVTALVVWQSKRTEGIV
Description: Functional Antagonism. Antagonism of the compounds of invention was determined by measuring the formation of cyclic AMP (adenosine 3′5′-cyclic monophosphate) in SK-N-MC cells that endogenously express the human CGRP receptor. […] For cyclic AMP measurements SK-N-MC cells were incubated with 0.3 nM CGRP alone or in the presence of various concentrations of the compounds of invention for 30 min at room temperature. […] Cyclic AMP was extracted using the lysis reagent and its concentration was determined by radioimmunoassay using RPA559 cAMP SPA Direct Screening Assay Kit (Amersham Pharmacia Biotech). IC50 values were calculated using Excel fit.

[3] = displacement of [125I]-CGRP, SK-N-MC homogenate, read-out: CGRP binding IC50
[4] = SK-N-MC cells, 0.3 nM CGRP, read-out: cAMP Function IC50

T1 sequence (Q16602 23-461): as the sequence (Q16602 23-461) above
T1 sequence (O60894 27-148): as the sequence (O60894 27-148) above

| Compound | IC50 [1, 3] | IC50 [2, 4] | IC50 [1] | IC50 [2] |
| --- | --- | --- | --- | --- |
| CCC(C)CN1CCN(C(=O)C(Cc2ccc3[nH]ncc3c2)NC(=O)N2CCC(N3Cc4ccccc4NC3=O)CC2)CC1 (centres unmarked) [Example 40a, 4-(2-Oxo-1,4-dihydro-2H-quinazolin-3-yl)-piperidine-1-carboxylic acid{1-(1H-indazol-5-ylmethyl)-2-[4-(2-methyl-butyl)-piperazin-1-yl]-2-oxo-ethyl}-amide] | < 10 nM | < 10 nM | – | – |
| O=C(NC(Cc1ccc2[nH]ncc2c1)C(=O)N1CCC(N2Cc3ccccc3NC2=O)CC1)N1CCC(N2Cc3ccccc3NC2=O)CC1 (centres unmarked) [Example 37, 4-(2-Oxo-1,4-dihydro-2H-quinazolin-3-yl)-piperidine-1-carboxylic acid{1-(1H-indazol-5-ylmethyl)-2-oxo-2-[4-(2-oxo-1,4-dihydro-2H-quinazolin-3-yl)-piperidin-1-yl]-ethyl}-amide] | < 10 nM | 10 to 100 nM | – | – |
| Cc1cc(CC(NC(=O)N2CCC3(CC2)OC(=O)Nc2ccccc23)C(=O)N2CCCCC2)cc2cn[nH]c12 (racemic) [Example 26, (±)-1-(7-Methyl-1H-indazol-5-ylmethyl)-2-(1-piperidinyl)-2-oxoethyl]-1′,2′-dihydro-2′-oxospiro-[4H-3′,1-benzoxazine-4,4′-piperidine]-1-carboxamide] | 10 to 100 nM | 10 to 100 nM | – | – |
| O=C(NC(Cc1ccc2[nH]ncc2c1)C(=O)N1CCC(N2CCCCC2)CC1)N1CCC(n2c(=O)[nH]c3ccccc32)CC1 (racemic) [Example 4, (±)-4-(2-Oxo-2,3-dihydro-benzoimidazol-1-yl)-piperidine-1-carboxylic acid[2-[1,4′]bipiperidinyl-1′-yl-1-(1H-indazol-5-ylmethyl)-2-oxo-ethyl]-amide] | 10 to 100 nM | 10 to 100 nM | – | – |
| O=C(C[C@H](NCc1ccc2[nH]ncc2c1)C(=O)N1CCC(N2CCCCC2)CC1)N1CCC(N2Cc3ccccc3NC2=O)CC1 [Example 94, (L)-1-[1,4′]Bipiperidinyl-1′-yl-2-((5′-indazolyl)-methyl-amino)-4-[4-(2-oxo-1,4-dihydro-2H-quinazolin-3-yl)-piperidin-1-yl]-butane-1,4-dione] | 100 to 1000 nM | 100 to 1000 nM | – | – |
| O=C(NC(Cc1ccc2[nH]ncc2c1)C(=O)N1CCC2(CC1)OCCO2)N1CCC(n2c(=O)[nH]c3ccccc32)CC1 (racemic) [Example 10, (±)-4-(2-Oxo-2,3-dihydro-benzoimidazol-1-yl)-piperidine-1-carboxylic acid[2-(1,4-dioxa-8-aza-spiro[4.5]dec-8-yl)-1-(1H-indazol-5-ylmethyl)-2-oxo-ethyl]-amide] | – | – | 100 to 1000 nM | 10 to 100 nM |
| CC(C)CN1CCN(C(=O)C(Cc2ccc3[nH]ncc3c2)NC(=O)N2CCC(n3c(=O)[nH]c4ccccc43)CC2)CC1 (racemic) [Example 9, (±)-4-(2-Oxo-2,3-dihydro-benzoimidazol-1-yl)-piperidine-1-carboxylic acid[1-(1H-indazol-5-ylmethyl)-2-(4-isobutyl-piperazin-1-yl)-2-oxo-ethyl]-amide] | 10 to 100 nM | 10 to 100 nM | – | – |
| O=C1Nc2ccccc2C2(CCN(C(=O)CC(Cc3ccc4[nH]ncc4c3)C(=O)N3CCC(N4CCCCC4)CC3)CC2)O1 (racemic) [Example 79, (±)-1-[1,4′]Bipiperidinyl-1′-yl-2-(1H-indazol-5-ylmethyl)-4-[1′,2′-dihydro-2′-oxospiro-[4H-3′,1-benzoxazine-4,4′-piperidinyl]-butane-1,4-dione] | 10 to 100 nM | 100 to 1000 nM | – | – |
| O=C(C[C@H](Nc1nc(Cl)nc2[nH]cnc12)C(=O)N1CCC(N2CCCCC2)CC1)N1CCC(N2Cc3ccccc3NC2=O)CC1 [Example 89, (L)-1-[1,4′]Bipiperidinyl-1′-yl-2-(2-chloro-9H-purin-6-ylamino)-4-[4-(2-oxo-1,4-dihydro-2H-quinazolin-3-yl)-piperidin-1-yl]-butane-1,4-dione] | 100 to 1000 nM | 10 to 100 nM | – | – |
| O=C(NC(Cc1ccc2[nH]ccc2c1)C(=O)N1CCC2(CC1)OCCO2)N1CCC(n2c(=O)[nH]c3ccccc32)CC1 (racemic) [Example 8, (±)-4-(2-Oxo-2,3-dihydro-benzoimidazol-1-yl)-piperidine-1-carboxylic acid[2-(1,4-dioxa-8-aza-spiro[4.5]dec-8-yl)-1-(1H-indol-5-ylmethyl)-2-oxo-ethyl]-amide] | – | – | 100 to 1000 nM | 100 to 1000 nM |
| COc1ccc(C(=O)N[C@@H](CC(=O)N2CCC(N3Cc4ccccc4NC3=O)CC2)C(=O)N2CCC(N3CCCCC3)CC2)cc1 [Example 99, (L)-N-{1-([1,4′]Bipiperidinyl-1′-carbonyl)-3-oxo-3-[4-(2-oxo-1,4-dihydro-2H-quinazolin-3-yl)-piperidin-1-yl]-propyl}-4-methoxy-benzamide] | > 1000 nM | > 1000 nM | – | – |
| O=C1NCC2(CCN(C(=O)N[C@H](Cc3csc4ccccc34)C(=O)N3CCC(N4CCCCC4)CC3)CC2)c2ccccc21 [Example 63, N-[(1R)-1-(Benzo[b]thien-3-ylmethyl)-2-[1,4-bipiperidin]-1-yl-2-oxoethyl]-2′,3′-dihydro-1-oxospiro-[piperidine-4,4′(1H)-isoquinoline]-1-carboxamide] | 100 to 1000 nM | 100 to 1000 nM | – | – |
| Cc1cc(CC(NC(=O)N2CCC3(CC2)CC(=O)Nc2ccccc23)C(=O)N2CCC(N3CCCCC3)CC2)cc2cn[nH]c12 (racemic) [Example 31, (±)-1-(7-Methyl-1H-indazol-5-ylmethyl)-2-[1,4-bipiperidin]-1-yl-2-oxoethyl]3′,4′-dihydro-2′-oxospiro-[piperidine-4,4′-(1H)-quinoline]-1-carboxamide] | < 10 nM | < 10 nM | – | – |
| Cc1cc(CC(CC(=O)N2CCC(N3Cc4ccccc4NC3=O)CC2)C(=O)N2CCCCC2)cc2cn[nH]c12 (racemic) [Example 78, (±)-2-(7-Methyl-1H-indazol-5-ylmethyl)-4-[4-(2-oxo-1,4-dihydro-2H-quinazolin-3-yl)-piperidin-1-yl]-1-piperidin-1-yl-butane-1,4-dione] | < 10 nM | < 10 nM | – | – |
| Cc1cc(CC(CC(=O)N2CCC(N3Cc4ccccc4NC3=O)CC2)C(=O)N2CCOCC2)cc2cn[nH]c12 (racemic) [Example 75, (±)-2-(7-Methyl-1H-indazol-5-ylmethyl)-1-morpholin-4-yl-4-[4-(2-oxo-1,4-dihydro-2H-quinazolin-3-yl)-piperidin-1-yl]-butane-1,4-dione] | < 10 nM | 10 to 100 nM | – | – |
| CC1(C)CN(CC(NC(=O)N2CCC(N3Cc4ccccc4NC3=O)CC2)C(=O)N2CCC(N3CCCCC3)CC2)Cc2cn[nH]c21 (racemic) [Example 56, (±)-4-(2-Oxo-1,4-dihydro-2H-quinazolin-3-yl)-piperidine-1-carboxylic acid[2-[1,4′]bipiperidinyl-1′-yl-1-(7,7-dimethyl-1,4,6,7-tetrahydro-pyrazolo[4,3-c]pyridin-5-ylmethyl)-2-oxo-ethyl]-amide] | < 10 nM | < 10 nM | – | – |
| O=C(NC(Cc1ccc2[nH]ncc2c1)C(=O)N1CCN(C(=O)OCc2ccccc2)CC1)N1CCC(N2Cc3ccccc3NC2=O)CC1 (centres unmarked) [Example 38, 4-(3-(1H-Indazol-5-yl)-2-{[4-(2-oxo-1,4-dihydro-2H-quinazolin-3-yl)-piperidine-1-carbonyl]-amino}-propionyl)-piperazine-1-carboxylic acid benzyl ester] | 10 to 100 nM | 10 to 100 nM | – | – |
| Cc1cc(CC(NC(=O)N2CCC(N3Cc4ccccc4NC3=O)CC2)C(=O)N2CCN(c3ccccn3)CC2)cc2cn[nH]c12 (racemic) [Example 22, (±)-4-(2-Oxo-1,4-dihydro-2H-quinazolin-3-yl)-piperidine-1-carboxylic acid[1-(7-methyl-1H-indazol-5-ylmethyl)-2-oxo-2-(4-pyridin-2-yl-piperazin-1-yl)-ethyl]-amide] | < 10 nM | < 10 nM | – | – |
| Cc1cc(CC(NC(=O)N2CCC(N3Cc4ccccc4NC3=O)CC2)C(=O)O)cc2cn[nH]c12 (racemic) [Example 15, (±)-3-(7-Methyl-1H-indazol-5-yl)-2-{[4-(2-oxo-1,4-dihydro-2H-quinazolin-3-yl)-piperidine-1-carbonyl]-amino}-propionic acid] | 100 to 1000 nM | 100 to 1000 nM | – | – |
| Cc1cc(CC(NC(=O)N2CCC3(CC2)NC(=O)Nc2ccccc23)C(=O)N2CCCCC2)cc2cn[nH]c12 (racemic) [Example 24, (±)-1-(7-Methyl-1H-indazol-5-ylmethyl)-2-(1-piperidinyl)-2-oxoethyl]-2′,3′-dihydro-2′-oxospiro-[piperidine-4,4′-(1H)-quinazoline]-1-carboxamide] | 10 to 100 nM | 10 to 100 nM | – | – |
| O=C(NC(Cc1ccc2[nH]ncc2c1)C(=O)N1CCC2(CC1)OCCO2)N1CCC(N2Cc3ccccc3NC2=O)CC1 (racemic) [Example 11, (±)-4-(2-Oxo-1,4-dihydro-2H-quinazolin-3-yl)-piperidine-1-carboxylic acid[2-(1,4-dioxa-8-aza-spiro[4.5]dec-8-yl)-1-(1H-indazol-5-ylmethyl)-2-oxo-ethyl]-amide] | 10 to 100 nM | – | – | 10 to 100 nM |
| Cc1cc(CC(NC(=O)N2CCC3(CC2)N=C(c2ccccc2)NC3=O)C(=O)N2CCCCC2)cc2cn[nH]c12 (racemic) [Example 35, (±)-4-Oxo-2-phenyl-1,3,8-triaza-spiro[4,5]dec-1-ene-8-carboxylic acid {1-(7-methyl-1H-indazol-5-yl methyl)-2-[1-piperidinylyl]-2-oxo-ethyl}-amide] | 10 to 100 nM | 10 to 100 nM | – | – |
